# “Also recorded” adds a separate entry of the source.
# Assay: Urinary and faecal excretion screening of an intravenously administered contrast agent
# Assay type: in vivo
# Settings: rats
# Procedure: Experimental Model for the Urinary and Faecal Excretion Screening of an Intravenously Administered Contrast Agent
# The experimentation is performed on 6 rats.
# The rats are individually housed in metabolic cages and urine and faeces are collected daily, for 7 days after administration. In particular faeces and urine are collected at the following time periods: 0 to 24 h,and every 24 hours up to 7 days.
# The animals are killed by decapitation at 7 days post-dosing and animals blood is collected in heparinised test tubes and then centrifuged for 15 min at 3500·g to separate the plasma. After bleeding, liver, spleen, femurs and kidneys are collected and weighted to evaluate residual content of Gd in the organs. Residual gadolinium concentration in the organic samples is determined by inductively-coupled plasma atomic emission spectrometry (ICP-AES) with a Jobin-Yvon Mod 24 spectrometer
# Excretion Screening of Rats Injected with B22956/1.
# The screening is performed using the contrast compound as 0.25M solution. The agent in intravenously injected in 6 rats with single doses of 0.1 and 1.0 mmol·kg^−1 of animal body weight.
# [1] = 0.1 mmol·kg^-1 intravenous, 7 days
# [2] = 1.0 mmol·kg^-1 intravenous, 0 to 7 days
# [3] = 1.0 mmol·kg^-1 intravenous, within 24 h after injection
substance,measurement,setting,value
"gadolinium complex of the [3(S),5,12]-3-[[4-[bis[2-[bis(carboxymethyl)-amino]ethyl]amino]-4-carboxy-1-oxobutyl]amino]-12-hydroxycholan-24-oic acid [B22956/1]",cumulative urinary and faecal elimination within 7 days,0.1 mmol·kg^-1 intravenous,94 to 102 % of the ID
same,average cumulative amount of gadolinium recovered in faeces,[1],88.2±7.9 % of the injected dose (ID)
same,average cumulative amount of gadolinium recovered in urine,[1],9.0±3.7 % of the ID
same,injected dose recovered in the faeces within 24 h,"0.1 mmol·kg^-1 intravenous, within 24 h after injection",~87 % of the injected dose
same,cumulative urinary and faecal elimination within 7 days,1.0 mmol·kg^-1 intravenous,89 to 92 % of the ID
same,"gadolinium recovered in faeces, cumulative amount",[2],39.7±1.4 % of the ID
same,"gadolinium recovered in urine, cumulative amount",[2],52.7 % of the ID
same,injected dose recovered in the faeces within 24 h,[3],about 37 % of ID
same,injected dose recovered in the urine within 24 h,[3],~48 % of the injected dose
same,"residual Gd in plasma, liver, spleen, femurs and kidneys",7 days after 0.1 or 1.0 mmol·kg^-1,almost total absence of gadolinium residues; also recorded: very low or negligible
same,residual Gd in the plasma as fraction of injected dose,"7 days after administration, plasma volume taken as 40 mL/Kg",less than 0.04 % of the injected dose
same,residual content of Gd in plasma,"7 days, both administered doses, ICP-AES detection limit",< 0.05 μg gadolinium/mL

# From patent publication US7128895B2, “Use of bile acid derivatives conjugated with metal ion chelated complexes for the diagnostic assessment of microvascular permeability” (Bracco Imaging S.p.A., priority 2000, dated 2006)
